According to patent publication US8163788B2, “Low-molecular inhibitors of cytohesin-family guanine nucleotide exchange factors” (Rheinische Friedrich-Wilhelms Universitat Bonn, priority 2004, dated 2012):

What was measured:
cytohesin-2 = assay: luciferase assay in HeLa-cells (serum response element activation, MAPK path via cytohesin-2); type: cell-based; settings: compounds 1 μM to 50 μM, read-out: IC50 (luciferase signal)
Procedure: The IC50 value was determined in comparison to the LC50 value in a luciferase assay in HeLa-cells, corresponding to the test conditions described in Theis, M. G. et al., Proc Natl Acad Sci USA, 101, 11221-26 (2004). The stimulation of receptor tyrosine kinases by means of growth factors contained in fetal calf serum activates the MAPK path via cytohesin-2 and results in an activation of the serum response element. This activation manifests itself in the quantity of luciferase produced in the cells.
Compounds (9), (10), (11), (12), (14) and (19) were each added in concentrations of 1 μM to 50 μM to 6.5×10^4 HeLa-cells.
The IC50 value was determined from the plotting of the concentration of the compound against the intensity of the luciferase signal.

[1] = test system: sec7-domain of cytohesin-1; assay: GDP/GTP exchange on NΔ17-ARF1 catalysed by sec7-domain (tryptophan fluorescence); type: biochemical; settings: conclusion in words from Table 1
Procedure: (§1) The IC50 value for the inhibition of the exchange activity of the sec7-domains of various guanine nucleotide exchange factors of the compounds (9), (10), (11), (12), (14) and (19) was determined.
(§2) For this purpose, the sec7-domains of cytohesin-1, cytohesin-2 and Gea2 as well as the NΔ 17-ARF 1, a mutant of the ARF protein, recombinantly expressed in E. coli BL21DE3, were purified by means of a standard method and used as catalysts for the exchange from GDP to GTP in GTPases of the family of the ADP ribosylation factors. The exchange from GDP to GTP induces a conformation change of the ribosylation factor, as a result of which the fluorescence of a tryptophan radical of the protein is increased.
(§3) In 50 mM of HEPES, pH 7.4, 120 mM of KCl, 1 mM of MgCl2, 45 μM of GTP S, the compounds (9), (10), (11), (12), (14) and (19), each in concentrations of 1 μM to 30 μM, were added to 1 μM NΔ 17-ARF1 and, in each case, 1 μM of the purified sec7-domain of cytohesin-1, cytohesin-2 and Gea2, and the fluorescence was measured in a Varioskan, Thermo LifeSciences Inc., at the following wavelengths: excitation: 275 nm, emission 340 nm.
(§4) The IC50 value can be determined by plotting the initial rise of the fluorescence signal against the added concentrations of the compounds. The IC50 value corresponds to the concentration of the compounds at which the activity of the protein is reduced to half. […] Brefeldin A, a specific inhibitor of the […] Gea2 served as the control.

[2] = target: T1, sec7-domain of cytohesin-1 (Homo sapiens, UniProt Q15438); assay: as above; type: biochemical; settings: 1 μM NΔ17-ARF1, 1 μM sec7-domain, compounds 1 μM to 30 μM
T1 construct: central sec7-domain, corresponding to the amino acids 62-244 in cytohesin-1; made in house; host or cells: E. coli BL21DE3
T1 sequence (Q15438 62-244): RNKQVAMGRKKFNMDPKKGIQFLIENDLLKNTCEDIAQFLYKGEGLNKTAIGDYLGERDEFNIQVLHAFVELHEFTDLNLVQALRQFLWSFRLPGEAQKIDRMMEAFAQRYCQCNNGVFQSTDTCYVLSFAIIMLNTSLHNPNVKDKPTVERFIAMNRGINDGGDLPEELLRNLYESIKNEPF
Procedure: as §1, §2, §3, §4

[3] = target: T2, sec7-domain of cytohesin-2 (Homo sapiens, UniProt Q99418); assay: as above; type: biochemical; settings: 1 μM NΔ17-ARF1, 1 μM sec7-domain, compounds 1 μM to 30 μM
T2 construct: 1 μM of the purified sec7-domain of cytohesin-1, cytohesin-2 and Gea2; made in house; host or cells: E. coli BL21DE3
T2 sequence (Q99418 72-201 limits assumed): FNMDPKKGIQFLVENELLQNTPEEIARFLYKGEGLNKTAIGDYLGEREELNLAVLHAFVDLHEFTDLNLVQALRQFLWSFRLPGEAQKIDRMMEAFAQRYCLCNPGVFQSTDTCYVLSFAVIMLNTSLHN
Procedure: as §1, §2, §3, §4

sec7-domain of Gea2 = target: T3, sec7-domain of Gea2 (Saccharomyces cerevisiae, UniProt P39993); assay: as above; type: biochemical
T3 construct: 1 μM of the purified sec7-domain of cytohesin-1, cytohesin-2 and Gea2; made in house; host or cells: E. coli BL21DE3
T3 sequence (P39993 570-714): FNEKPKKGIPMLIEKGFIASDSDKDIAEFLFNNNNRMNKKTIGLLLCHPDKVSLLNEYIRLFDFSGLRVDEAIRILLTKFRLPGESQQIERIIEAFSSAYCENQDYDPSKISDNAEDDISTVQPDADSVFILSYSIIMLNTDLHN
Procedure: as §1, §2, §3, §4

**Q.** Which IC50 (cytohesin-2) does the source give for COc1nc(-c2ccc3c(c2)OCO3)n(-c2ccc(NC(=O)CSc3ccccc3)cc2)n1 [Compound 9] here?
**A.** 12 ± 0.8 µM

**Q.** And the “specificity of inhibition of sec7-domains (cytohesins vis-à-vis Gea2)” value [1]?
**A.** specific inhibition of the sec7-domains of the cytohesins

**Q.** And the IC50 [2]?
**A.** 7.6 ± 0.3 µM

**Q.** And the IC50 [3]?
**A.** 8.3 ± 0.2 µM

**Q.** What about the IC50 (sec7-domain of Gea2) of the same molecule?
**A.** 64 ± 4 µM
